US9975903B2, “Condensed heterocyclic compound” (Takeda Pharmaceutical Company Limited, priority 2014, dated 2018)
Structures can show the parent of a compound that is named as a salt.

Molecular target: T1, Human recombinant enteropeptidase (Homo sapiens, UniProt P98073)
T1 construct: purchased ITSI-Biosciences LLC #REN-260
Assay: Human enteropeptidase inhibitory activity (Test Example 1)
Assay type: biochemical
Details: 3.3 μM test compound; inhibition rate from fluorescence intensity at 2 hours after the start of the reaction; read-out: 3.3 μM Inhibition
Experimental: Human recombinant enteropeptidase (#REN-260, ITSI-Biosciences LLC) was diluted with an assay buffer (50 mM Tricine, pH 8.0, 0.01 (w/v) %, Tween 20, 10 mM CaCl2) to prepare a 24 mU/mL enzyme solution. Subsequently, 5FAM-Abu-Gly-Asp-Asp-Asp-Lys-Ile-Val-Gly-Gly-Lys(CPQ2)-Lys-Lys-NH2 (SEQ ID NO: 1, purity: 97.2%, CPC Scientific Inc.) was diluted with the assay buffer to prepare a 2.1 μM substrate solution. A test compound is dissolved in DMSO into a 1 mM solution, and the solution was diluted by 100-fold with the assay buffer to give a compound solution. To a 384-well black plate (#784076, Greiner Bio-One), 5 μL of the compound solution and 5 μL of the substrate solution were added and mixed, and 5 μL of the enzyme solution was then added to the mixture, followed by mixing to start the reaction. The fluorescence intensity was measured with a fluorescence plate reader EnVision (The Perkin-Elmer Corp.) at an excitation wavelength of 485 nm and a fluorescence wavelength of 535 nm. The same reaction as above except that the test compound was not contained was performed (test compound non-addition group). Furthermore, the same reaction as above except that the test compound and the enzyme were not contained was performed (control group). The inhibition rate was calculated using the fluorescence intensity at 2 hours after the start of the reaction by the following expression: Inhibition rate (%)=(1−((fluorescence intensity of test compound addition group)−(fluorescence intensity of control group))/((fluorescence intensity of test compound non-addition group)−(fluorescence intensity of control group)))×100

T1 sequence (P98073 whole entry): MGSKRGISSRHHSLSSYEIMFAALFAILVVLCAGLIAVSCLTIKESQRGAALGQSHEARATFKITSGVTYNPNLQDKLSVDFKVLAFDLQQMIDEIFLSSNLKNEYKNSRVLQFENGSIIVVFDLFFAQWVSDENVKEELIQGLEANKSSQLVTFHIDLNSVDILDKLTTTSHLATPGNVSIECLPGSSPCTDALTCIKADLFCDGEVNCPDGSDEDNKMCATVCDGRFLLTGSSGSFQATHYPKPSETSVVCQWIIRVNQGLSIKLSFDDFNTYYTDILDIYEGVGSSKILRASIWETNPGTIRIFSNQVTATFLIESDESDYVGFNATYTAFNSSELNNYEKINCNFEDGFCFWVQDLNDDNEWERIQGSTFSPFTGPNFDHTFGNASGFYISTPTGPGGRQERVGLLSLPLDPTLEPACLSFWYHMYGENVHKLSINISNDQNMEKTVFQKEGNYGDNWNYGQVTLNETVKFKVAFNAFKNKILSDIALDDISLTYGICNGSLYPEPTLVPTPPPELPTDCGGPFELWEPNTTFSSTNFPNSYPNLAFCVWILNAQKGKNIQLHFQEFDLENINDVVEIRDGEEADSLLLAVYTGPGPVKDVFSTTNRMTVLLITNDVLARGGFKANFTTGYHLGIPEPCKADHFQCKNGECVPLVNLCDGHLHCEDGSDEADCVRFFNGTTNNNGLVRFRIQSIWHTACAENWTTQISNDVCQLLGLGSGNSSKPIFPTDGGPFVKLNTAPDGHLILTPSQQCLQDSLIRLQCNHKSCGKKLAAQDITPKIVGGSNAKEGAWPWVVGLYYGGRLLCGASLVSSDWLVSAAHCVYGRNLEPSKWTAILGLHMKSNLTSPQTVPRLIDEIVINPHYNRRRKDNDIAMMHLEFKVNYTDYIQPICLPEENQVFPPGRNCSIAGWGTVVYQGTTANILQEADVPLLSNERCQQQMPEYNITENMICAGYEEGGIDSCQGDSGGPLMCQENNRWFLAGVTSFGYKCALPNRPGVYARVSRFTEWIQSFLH

inhibition at 3.3 µM | Compound
101% | N=C(N)Nc1ccc2c(c1)CCCOc1c(cccc1C(=O)N[C@@H](CC(=O)O)C(=O)O)OC2=O [Example 1, N-((10-Carbamimidamido-13-oxo-6,7,8,13-tetrahydrodibenzo[b,f][1,4]dioxecin-4-yl)carbonyl)-L-aspartic acid]
100% | N=C(N)Nc1ccc2c(c1)CCCOc1c(cccc1C(=O)N(CC(=O)O)Cc1cccc(CN(CC(=O)O)CC(=O)O)n1)OC2=O [Example 126, N-((6-((bis(carboxy-methyl)amino)methyl)pyridin-2-yl)methyl)-N-((10-carbamimidamido-13-oxo-6,7,8,13-tetrahydro-dibenzo[b,f] [1,4]dioxecin-4-yl)carbonyl)glycine]
89% | N=C(N)Nc1ccc2c(c1)CCc1cccc(CCC(=O)N[C@@H](CC(=O)O)C(=O)O)c1OC2=O [Example 54, N-(3-(9-carbamimidamido-6-oxo-11,12-dihydro-6H-dibenzo[b,f]oxocin-4-yl)propanoyl)-L-aspartic acid]
42% | N=C(N)Nc1ccc2c(c1)CCc1nc(CCC(=O)N[C@@H](CC(=O)O)C(=O)O)ccc1OC2=O [Example 48, N-(3-(9-Carbamimidamido-6-oxo-11,12-dihydro-6H-[2]benzoxocino[4,3-b]pyridin-2-yl)propanoyl)-L-aspartic acid trifluoroacetate]
100% | N=C(N)Nc1ccc2c(c1)CCCOc1c(cccc1C(=O)N(CC(=O)O)[C@@H](Cc1ccccc1)C(=O)O)OC2=O [Example 133, N-((10-carbamimidamido-13-oxo-6,7,8,13-tetrahydro-dibenzo[b,f] [1,4]dioxecin-4-yl)carbonyl)-N-(carboxymethyl)-L-phenylalanine]
100% | N=C(N)Nc1ccc2c(c1)CCCOc1cc(CCC(=O)N[C@@H](CC(=O)O)C(=O)O)ccc1OC2=O [Example 49, N-(3-(10-carbamimidamido-13-oxo-6,7,8,13-tetrahydro-dibenzo[b,f] [1,4]dioxecin-3-yl)propanoyl)-aspartic acid]
100% | N=C(N)Nc1ccc2c(c1)CCc1c(CCC(=O)N[C@@H](CC(=O)O)C(=O)O)cccc1OC2=O [Example 57, N-(3-(9-Carbamimidamido-6-oxo-11,12-dihydro-6H-dibenzo[b,f]oxocin-1-yl)propanoyl)-L-aspartic acid trifluoroacetate]
101% | N=C(N)Nc1ccc2c(c1)CCCOc1c(ccc(CCC(=O)O)c1C(=O)N(CCN(CC(=O)O)CC(=O)O)CC(=O)O)OC2=O [Example 149]
101% | N=C(N)Nc1ccc2c(c1)CCCCCc1c(cccc1C(=O)N[C@@H](CC(=O)O)C(=O)O)OC2=O [Example 76, N-((3-Carbamimidamido-15-oxo-5,6,7,8,9,15-hexahydrodibenzo[b,i]hexacycloundecin-10-yl)carbonyl)-L-aspartic acid]
102% | N=C(N)Nc1ccc2c(c1)CCCOc1c(cccc1C(=O)NCCS(=O)(=O)O)OC2=O [Example 28, 2-(((10-carbamimidamido-13-oxo-6,7,8,13-tetrahydro-dibenzo[b,f] [1,4]dioxecin-4-yl)carbonyl)amino) ethanesulfonic acid]
102% | N=C(N)Nc1ccc2c(c1)CCCOc1c(CCC(=O)O)cccc1OC2=O [Example 91, 3-(10-Carbamimidamido-13-oxo-6,7,8,13-tetrahydrodibenzo[b,f][1,4]dioxecin-4-yl)propanoic acid trifluoroacetate]
99% | COc1ccc(C[C@H](NC(=O)c2c(CCC(=O)O)ccc3c2OCCCc2cc(NC(=N)N)ccc2C(=O)O3)C(=O)O)cc1 [Example 112, N-((10-carbamimidamido-3-(2-carboxyethyl)-13-oxo-6,7,8,13-tetrahydro-dibenzo[b,f] [1,4]dioxecin-4-yl)carbonyl)-O-methyl-L-tyrosine]
100% | N=C(N)Nc1ccc2c(c1)CCCOc1c(CCC(=O)N[C@@H](CC(N)=O)C(=O)O)cccc1OC2=O [Example 97, N^~2^~-(3-(10-carbamimidamido-13-oxo-6,7,8,13-tetrahydro-dibenzo[b,f] [1,4]dioxecin-4-yl)propanoyl)-L-asparagine]
102% | N=C(N)Nc1ccc2c(c1)CCCOc1c(cccc1C(=O)NCS(=O)(=O)O)OC2=O [Example 27, (((10-carbamimidamido-13-oxo-6,7,8,13-tetrahydro-dibenzo[b,f] [1,4]dioxecin-4-yl)carbonyl)amino) methanesulfonic acid]
71% | N=C(N)Nc1ccc2c(c1)CCCCc1c(CC(=O)N[C@@H](CC(=O)O)C(=O)O)cccc1OC2=O [Example 32, N-((3-carbamimidamido-14-oxo-5,7,8,14-tetrahydro-6H-dibenzo[b,h]oxecin-9-yl)acetyl)-L-aspartic acid]
100% | N=C(N)Nc1ccc2c(c1)OCCCCOc1cc(CCC(=O)NC(CC(=O)O)C(=O)O)ccc1OC2=O (stereo not drawn) [Example 46, N-(3-(3-carbamimidamido-16-oxo-6,7,8,9-tetrahydro-16H-dibenzo[b,f][1,4,8]trioxacyclo-dodecin-12-yl)propanoyl) aspartic acid]
93% | N=C(N)c1ccc2c(c1)CCc1cc(C(=O)N[C@@H](CC(=O)O)C(=O)O)ccc1C(=O)O2 [Example 63, N-((2-carbamimidoyl-6-oxo-11,12-dihydro-6H-dibenzo[b,f]oxocin-9-yl)carbonyl)-L-aspartic acid]
101% | N=C(N)Nc1ccc2c(c1)CCCOc1c(cccc1C(=O)NC(CC(=O)O)CC(=O)O)OC2=O [Example 11, 3-(((10-Carbamimidamido-13-oxo-6,7,8,13-tetrahydrodibenzo[b,f][1,4]dioxecin-4-yl)carbonyl)amino)pentanedioic acid]
101% | N=C(N)Nc1ccc2c(c1)CCCOc1c(cccc1C1=NO[C@@](CC(=O)O)(C(=O)O)C1)OC2=O (stereo in doubt) [Example 22, 3-(10-Carbamimidamido-13-oxo-6,7,8,13-tetrahydrodibenzo[b,f][1,4]dioxecin-4-yl)-5-(carboxymethyl)-4,5-dihydro-1,2-oxazole-5-carboxylic acid]
100% | N=C(N)Nc1ccc2c(c1)CCCOc1c(cccc1C(=O)N(CCOCc1ccccc1)C(CC(=O)O)C(=O)O)OC2=O (stereo not drawn) [Example 137]
99% | N=C(N)Nc1ccc2c(c1)CCCOc1c(ccc(CCC(=O)O)c1C(=O)N[C@@H](Cc1ccc(O)cc1)C(=O)O)OC2=O [Example 113, N-((10-carbamimidamido-3-(2-carboxyethyl)-13-oxo-6,7,8,13-tetrahydro-dibenzo[b,f] [1,4]dioxecin-4-yl)carbonyl)-L-tyrosine]
100% | N=C(N)Nc1ccc2c(c1)CCCCc1c(cccc1C(=O)N(CC(=O)O)Cc1cccc(C(=O)O)c1)OC2=O [Example 128]
102% | N=C(N)Nc1ccc2c(c1)CCCCOc1c(cccc1C(=O)N[C@@H](CC(=O)O)C(=O)O)OC2=O [Example 82, N-((11-carbamimidamido-14-oxo-7,8,9,14-tetrahydro-6H-dibenzo[b,f][1,4]dioxacycloundecin-4-yl)carbonyl)-L-aspartic acid]
100% | N=C(N)Nc1ccc2c(c1)CCCOc1c(cccc1C(=O)N(CC(=O)O)Cc1cccc(C(=O)O)c1)OC2=O [Example 71, 3-((((10-Carbamimidamido-13-oxo-6,7,8,13-tetrahydrodibenzo[b,f][1,4]dioxecin-4-yl)carbonyl) (carboxymethyl)amino)methyl)benzoic acid]
